{"source": "patent EP1464336A1", "about": "“Use of tryprostatin A for the reversal of cancer drug resistance” (Humboldt-Universität zu Berlin, priority 2003, dated 2004)", "key": {"[1]": {"test_system": "cell cycle progression at the G2/M phase", "conditions": "literature (Cui CB et al.; Usui T et al.); cited from earlier work"}, "[2]": {"test_system": "MCF-7 breast cancer-derived cell variants", "assay": "Cytotoxicity of the MDR modulator alone (SRB proliferation assay)", "assay_type": "cell-based, human", "protocol": "Modulation of chemoresistance was tested using a proliferation assay based on sulforhodamine B (SRB), a protein-binding reagent (Skehan P et al., J Natl Cancer Inst 1990;82:1107-12), as described in Lage H et al., Int J Hyperthermia 2000;16:291-303; Lage H et al., FEBS Lett 2001;503:179-84; Lage H et al., FEBS Lett 2001;494:54-9. In each experiment, 350 cells per well were seeded in the presence or absence of TPS-A in 96-well plates in complete medium and allowed to attach overnight. Mitoxantrone or daunorubicin were added in a dilution series in triplicate wells. After 5 days, when unselected wells were still subconfluent, incubation was terminated by replacing the medium with 10 % trichloroacetic acid, followed by incubation at 4 °C for 1 h. After samples were washed 5 times with water and air-dried, 50 µl 0.4 % SRB (Sigma, St. Louis, MO) in 1 % acetic acid was added and samples were incubated for 10 min at room temperature. […] After air-drying and re-solubilisation of the protein-bound dye in 10 mM Tris-HCl (pH 8.0), absorbance was quantified at 562.5 nm. […] Linear regression of data was done for the linear part of the curve, and IC50-values were calculated from multiple, at least three independent experiments for each cell line.\nThe cytotoxicity of the MDR modulators TPS-A and GF120918 on drug-sensitive and drug-resistant gastric and breast cancer cell lines was initially assessed."}, "[3]": {"test_system": "microtubule-associated protein (MAP)-dependent microtubule assembly", "conditions": "literature (Usui T et al., Biochem J 1998); cited from earlier work"}, "[4]": {"test_system": "MDR1 Pgp overexpressing subline (EPG85-257RDB)", "assay": "C6-NBD-PS outward translocation assay", "assay_type": "cell-based, human", "conditions": "10 µM inhibitor; 30 minutes at 37°C (Fig. 8)", "protocol": "(§1) To measure redistribution of C6-NBD-PS from the cytoplasmic to the exoplasmic leaflet, labelling of the cytoplasmic leaflet is preconditional. Previously, we have introduced a method to achieve efficient labeling of the plasma membrane inner leaflet of the gastric carcinoma cell line EPG85-257 (Pohl, A., Lage, H., Müller, P., Pomorksi, T., and Herrmann. A. (2002) Biochem. J. 365, 259-268). Briefly, cells were preincubated with or without MDR inhibitors, labelled with 5 µM C6-NBD-PS, and incubated at 20°C for 30 minutes to allow inward movement of the NBD analogue. C6-NBD-PS remaining on the cell surface was extracted twice by incubation with 2% (w/v) BSA in mPBS for 10 minutes on ice. Before starting the outward translocation assay, the medium was removed, and cells were washed with ice-cold mPBS. For t=0', ice-cold medium containing 2% (w/v) BSA and 5 mM DFP ( = diisopropyl fluoro-phosphate) in mPBS with or without inhibitor was immediately added to the cell dish for 10 minutes. To measure C6-NBD-PS outward translocation, medium prewarmed to 37°C was added to the dish, and cells were incubated at 37°C for 30 minutes (t = 30'). Removal of the BSA-containing media and a second extraction with 2% BSA in mPBS for 10 minutes terminated incubations, followed by lipid analysis.\n(§2) After the incubations, the second BSA back exchange medium was pooled with the first, and cells scraped into mPBS. For analysis of outward translocation and of metabolic conversion of C6-NBD-PS, lipids from both scraped cells and media were extracted with isopropanol/chloroform/(5.5:1, v/v) to prevent substantial loss into the aqueous phase. Samples were centrifuged at 780 g for 5 minutes, the supernatant transferred into new glass tubes and dried, dissolved in chloroform/methanol (1:1) and quantified spectroscopically. For C6-NBD-PC analysis, lipids from both cells and incubation media were extracted by the method of Bligh and Dyer (Bligh, E., and Dyer, W. (1959) Can. J Biochem. Physiol. 37, 911-917) using 20 mM acetic acid in the aqueous phase. After 2-D separation [I, chloroform/methanol/25% ammonium hydroxide (65:25:4, v/v); II, chloroform/acetone/methanol/acetic acid/water (10:4:2:2:1, v/v)] on thin layer chromatography plates, fluorescent lipid spots were visualized under ultraviolet light, scraped, and quantified as described before (Pomorski, T., Müller, P., Zimmermann, B., Burger, K., Devaux, P., and Herrmann, A. (1996) J. Cell Sci. 109, 687-698)."}, "[5]": {"test_system": "control cells (EPG85-257P)", "assay": "C6-NBD-PS outward translocation assay", "assay_type": "cell-based, human", "conditions": "10 µM inhibitor; 30 minutes at 37°C (Fig. 8)", "protocol": "as §1, §2"}, "[6]": {"test_system": "BCRP overexpressing cells (EPG85-257RNOV)", "assay": "C6-NBD-PS outward translocation assay", "assay_type": "cell-based, human", "conditions": "pretreatment with 10 µM inhibitor; 30 minutes at 37°C (Fig. 8)", "protocol": "as §1, §2"}, "[7]": {"test_system": "parental, drug-sensitive gastric carcinoma cell variant EPG85-257P", "assay": "Mitoxantrone accumulation assay (flow cytometry)", "assay_type": "cell-based, human", "conditions": "TPS-A (Fig 4A)", "protocol": "(§3) Cellular mitoxantrone accumulation was determined according to the procedure described in Lage H et al., FEBS Lett 2001;503:179-84. Briefly, 4 x 10^5 cells were seeded out in 6-well plates 78 hours prior to the experiment. Incubation with mitoxantrone (0, 1,5 and 10 µg/ml) was performed for 60 minutes at 37°C and 70-80 % cellular confluence. For kinetics of intracellular enrichment of mitoxantrone, cells were exposed to 10 µg/ml mitoxantrone for 0, 5, 10 and 60 min. Cells were washed with ice-cold PBS, trypsinized and resuspended in 4 °C PBS at a concentration of 4 x 10^5 cells/ml. Intracellular fluorescence of mitoxantrone was determined by flow cytometry (Becton-Dickinson, San Jose, CA). The cells were excited at 480 nm and emission was measured at 630 nm. A minimum of 10^4 cells was analyzed for each sample. All assays were performed at least in three independent experiments, each time with triplicate wells.\n(§4) To provide confirmation that the observed resensitization to mitoxantrone of BCRP-overexpressing cells was indeed the result of BCRP inhibition by TPS-A, a mitoxantrone accumulation assay was performed. The known so-called \"multispecific\" MDR modulator GF120918, inhibiting P-gp- and BCRP activity, was used as a positive control for P-gp- and BCRP antagonism."}, "[8]": {"test_system": "P-gp-expressing, classical MDR variant EPG85-257RDB", "assay": "Mitoxantrone accumulation assay (flow cytometry)", "assay_type": "cell-based, human", "conditions": "TPS-A (Fig 4A)", "protocol": "as §3, §4"}, "[9]": {"test_system": "BCRP-transfected cell variant MCF-7/BCRP clone 8", "assay": "Mitoxantrone accumulation assay (flow cytometry)", "assay_type": "cell-based, human", "conditions": "50 µM TPS-A; compared to drug accumulation level in the untreated, parental control cell line (Fig 4B)", "protocol": "as §3, §4"}, "MCF-7/AdrVp": {"test_system": "MCF-7/AdrVp", "assay": "Mitoxantrone accumulation assay (flow cytometry)", "assay_type": "cell-based, human", "conditions": "50 µM TPS-A", "protocol": "as §3, §4"}}, "note": "“Also recorded” adds a separate entry of the source."}
{"molecule": "COc1ccc2c(C[C@@H]3NC(=O)[C@@H]4CCCN4C3=O)c(CC=C(C)C)[nH]c2c1", "note": "[TPS-A, tryprostatin A]", "values": [{"measurement": "final concentration arresting cell cycle progression at the G2/M phase", "setting": "[1]", "result": 125, "unit": "µM"}, {"measurement": "effect on the cell proliferation", "setting": "[2]; 50 µM TPS-A alone in the cell culture medium", "result": "without any effect on the cell proliferation; also recorded: did not show any cytotoxic or growth-inhibiting effects"}, {"measurement": "concentration necessary to obtain a level of drug sensitivity beyond that found for 1 µM GF120918", "setting": "[2]; MCF-7-derived breast cancer model system", "result": 50, "unit": "µM"}, {"measurement": "final concentration inhibiting MAP-dependent microtubule assembly / cell cycle progression at the M phase", "setting": "[3]", "result": 250, "unit": "µM"}, {"measurement": "PS analogue outward translocation (MDR1 Pgp lipid transport activity)", "setting": "[4]", "result": "did not affect"}, {"measurement": "PS transport (C6-NBD-PS outward translocation)", "setting": "[5]", "result": "did not affect PS transport significantly"}, {"measurement": "amount of C6-NBD-PS in the BSA containing medium (outward translocation)", "setting": "[6]", "result": "sharp and highly significant decrease"}, {"measurement": "mitoxantrone accumulation", "setting": "[7]", "result": "slightly increased mitoxantrone accumulation"}, {"measurement": "drug transporter inhibiting effect (mitoxantrone accumulation)", "setting": "[8]", "result": "No significant drug transporter inhibiting effect"}, {"measurement": "inhibition of the mitoxantrone pump activity", "setting": "[9]", "result": "completely"}, {"measurement": "increase of drug accumulation with respect to control cells", "setting": "MCF-7/AdrVp", "result": 45, "unit": "%"}]}
